Assay results from patent publication US7304174B2, “CaSR antagonist” (Japan Tobacco Inc., priority 2003, dated 2007).

Molecular target: T1, human calcium receptor (Homo sapiens, UniProt P41180)
T1 construct: expressed in transfected cells; host or cells: cell strain derived from rat adrenal, co-transformed with luciferase cDNA
T1 sequence (P41180 20-1078): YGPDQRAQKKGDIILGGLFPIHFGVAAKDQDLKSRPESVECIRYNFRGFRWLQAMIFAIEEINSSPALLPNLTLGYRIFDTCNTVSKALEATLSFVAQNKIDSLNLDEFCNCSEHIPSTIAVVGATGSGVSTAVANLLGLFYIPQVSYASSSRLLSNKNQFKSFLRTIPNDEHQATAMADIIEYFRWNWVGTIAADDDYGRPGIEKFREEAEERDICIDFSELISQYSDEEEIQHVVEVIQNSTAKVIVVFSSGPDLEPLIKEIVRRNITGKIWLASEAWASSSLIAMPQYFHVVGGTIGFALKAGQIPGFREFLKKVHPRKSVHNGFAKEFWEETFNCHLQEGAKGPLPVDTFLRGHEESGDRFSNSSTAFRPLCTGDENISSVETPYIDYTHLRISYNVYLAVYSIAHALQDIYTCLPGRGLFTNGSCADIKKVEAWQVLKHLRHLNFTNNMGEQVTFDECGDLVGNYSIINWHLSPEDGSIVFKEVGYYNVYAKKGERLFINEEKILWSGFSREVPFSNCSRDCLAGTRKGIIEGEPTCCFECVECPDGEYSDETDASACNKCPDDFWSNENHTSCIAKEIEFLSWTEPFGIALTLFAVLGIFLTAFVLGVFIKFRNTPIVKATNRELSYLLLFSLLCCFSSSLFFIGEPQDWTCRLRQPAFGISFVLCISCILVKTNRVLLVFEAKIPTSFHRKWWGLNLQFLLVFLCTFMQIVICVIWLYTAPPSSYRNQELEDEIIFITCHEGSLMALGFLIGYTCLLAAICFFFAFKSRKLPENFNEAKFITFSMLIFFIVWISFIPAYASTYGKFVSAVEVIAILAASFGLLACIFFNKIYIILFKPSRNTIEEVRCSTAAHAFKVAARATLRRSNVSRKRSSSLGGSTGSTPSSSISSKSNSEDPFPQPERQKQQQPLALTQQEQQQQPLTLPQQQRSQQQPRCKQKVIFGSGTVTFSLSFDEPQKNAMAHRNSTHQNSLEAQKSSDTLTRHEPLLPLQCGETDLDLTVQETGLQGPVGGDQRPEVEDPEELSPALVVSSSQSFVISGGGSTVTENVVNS
Experiment: Evaluation of antagonistic action on calcium receptor using reporter gene (luciferase)
Format: cell-based
Details: transformed rat adrenal derived cells, 5 mM calcium chloride, culture 4 hrs, luciferase activity; read-out: Reporter gene assay (IC50, concentration showing 50% inhibitory rate)
Protocol: Evaluation of Antagonistic Action on Calcium Receptor Using Reporter Gene
Luciferase cDNA and human calcium receptor cDNA were introduced into a cell strain derived from rat adrenal to transform the cells, and the transformed cells were cultured in a medium (80 μl, F12 medium containing 0.5% dialyzed horse serum and 0.25% dialyzed bovine fetal serum). A dimethyl sulfoxide solution containing a test compound at 0.1-10000 μM was diluted 100-fold with the medium and added to the test compound group at 10 μl per well (dimethyl sulfoxide final concentration 0.1%). In the same manner as in test compound group, dimethyl sulfoxide 100-fold diluted with medium was added to a control group and a blank group. Then, 50 mM calcium chloride-containing medium was added to every well except the blank group at 10 μl per well (final concentration 5 mM). A medium containing 50 mM calcium chloride was added to the control group at 10 μl per well, such that the final calcium concentration of the medium became 5 mM. A medium alone was added to the blank group. After culture for 4 hrs, luciferase substrate was added and the luciferase activity was measured with a photoluminometer. The inhibitory rate (%) was calculated from the obtained measured values according to the following formula.
Based on the results, the concentration (IC50) showing 50% inhibitory rate was determined. The results are shown in the aforementioned Tables 1 to 60.

Row | SMILES | IC50 [nM]
1 | Cc1cc(F)c(CC(C)(C)NC[C@@H](O)CO[C@H](C)c2ccccc2-c2ccc(C(=O)O)c(C)c2)cc1Cl [Example 1-90, 2′-[1-[(2R)-3-[[1-(5-chloro-2-fluoro-4-methylphenyl)-2-methylpropan-2-yl]amino]-2-hydroxypropoxy]ethyl]-3-methylbiphenyl-4-carboxylic acid] | 271
2 | CCCc1cc(-c2ccccc2[C@@H](C)OC[C@H](O)CNC(C)(C)Cc2ccc3ccccc3c2)ccc1C(=O)O [Example 1-36, 2′-[1-[(2R)-3-[[1-(naphthalen-2-yl)-2-methylpropan-2-yl]amino]-2-hydroxypropoxy]ethyl]-3-propylbiphenyl-4-carboxylic acid] | 2
3 | COc1ccc(CC(C)(C)NC[C@@H](O)CO[C@H](C)c2ccccc2-c2ccc(C(=O)O)c(C)c2)cc1F [Example 1-20, 2′-[1-[(2R)-3-[[1-(3-fluoro-4-methoxyphenyl)-2-methylpropan-2-yl]amino]-2-hydroxypropoxy]ethyl]-3-methylbiphenyl-4-carboxylic acid] | 40
4 | C[C@@H](OC[C@H](O)CNC(C)(C)Cc1ccc(Cl)c(Cl)c1)c1ccccc1-c1ccc(C(=O)O)c(C(F)(F)F)c1 [Example 1-31, 2′-[1-[(2R)-3-[[1-(3,4-dichlorophenyl)-2-methylpropan-2-yl]amino]-2-hydroxypropoxy]ethyl]-3-(trifluoromethyl)biphenyl-4-carboxylic acid] | 5
5 | Cc1cc(-c2ccccc2[C@@H](C)OC[C@H](O)CNC(C)(C)Cc2cccc(Cl)c2)ccc1C(=O)O [Example 1-60, 2′-[1-[(2R)-3-[[1-(3-chlorophenyl)-2-methylpropan-2-yl]amino]-2-hydroxypropoxy]ethyl]-3-methylbiphenyl-4-carboxylic acid] | 96
6 | Cc1cc(-c2ccccc2[C@@H](C)OC[C@H](O)CNC(C)(C)Cc2ccc3ccccc3c2)ccc1C(=O)O [Example 1-12, 2′-[1-[(2R)-3-[[1-(naphthalen-2-yl)-2-methylpropan-2-yl]amino]-2-hydroxypropoxy]ethyl]-3-methylbiphenyl-4-carboxylic acid] | 13
7 | Cc1cc(C(=O)O)cc(-c2ccccc2[C@@H](C)OC[C@H](O)CNC(C)(C)Cc2ccc(C)c(F)c2)c1 [Example 1-17, 2′-[1-[(2R)-3-[[1-(3-fluoro-4-methylphenyl)-2-methylpropan-2-yl]amino]-2-hydroxypropoxy]ethyl]-3-methylbiphenyl-5-carboxylic acid] | 15
8 | Cc1ccc(CC(C)(C)NC[C@@H](O)CO[C@H](C)c2ccccc2-c2ccc(C(=O)O)c(Cc3ccccc3)c2)cc1F [Example 1-79, 3-benzyl-2′-[1-[(2R)-3-[[1-(3-fluoro-4-methylphenyl)-2-methylpropan-2-yl]amino]-2-hydroxypropoxy]ethyl]biphenyl-4-carboxylic acid] | 4
9 | Cc1ccc(CC(C)(C)NC[C@@H](O)CO[C@H](C)c2ccccc2-c2cc(C)c(C(=O)O)c(C)c2)cc1F [Example 1-43, 2′-[1-[(2R)-3-[[1-(3-fluoro-4-methylphenyl)-2-methylpropan-2-yl]amino]-2-hydroxypropoxy]ethyl]-3,5-dimethylbiphenyl-4-carboxylic acid] | 16
10 | Cc1cc(-c2ccccc2[C@@H](C)OC[C@H](O)CNC(C)(C)Cc2ccc(Cl)c(Cl)c2)ccc1C(=O)O [Example 1-61, 2′-[1-[(2R)-3-[[1-(3,4-dichlorophenyl)-2-methylpropan-2-yl]amino]-2-hydroxypropoxy]ethyl]-3-methylbiphenyl-4-carboxylic acid] | 4
11 | CCCc1cc(-c2ccccc2[C@@H](C)OC[C@H](O)CNC(C)(C)Cc2ccc(C)c(F)c2)ccc1C(=O)O [Example 1-38, 2′-[1-[(2R)-3-[[1-(3-fluoro-4-methylphenyl)-2-methylpropan-2-yl]amino]-2-hydroxypropoxy]ethyl]-3-propylbiphenyl-4-carboxylic acid] | 2
12 | Cc1cc(-c2ccccc2[C@H](OC[C@H](O)CNC(C)(C)Cc2ccc(Cl)c(F)c2)C2CC2)ccc1C(=O)O [Example 1-19, 2′-[(cyclopropyl)[(2R)-3-[[1-(4-chloro-3-fluorophenyl)-2-methylpropan-2-yl]amino]-2-hydroxypropoxy]methyl]-3-methylbiphenyl-4-carboxylic acid] | 5
13 | COc1ccc(CC(C)(C)NC[C@@H](O)CO[C@H](C)c2ccccc2-c2ccc(C(=O)O)c(C(F)(F)F)c2)c(F)c1 [Example 1-29, 2′-[1-[(2R)-3-[[1-(2-fluoro-4-methoxyphenyl)-2-methylpropan-2-yl]amino]-2-hydroxypropoxy]ethyl]-3-(trifluoromethyl)biphenyl-4-carboxylic acid] | 82
14 | Cc1ccc(CC(C)(C)NC[C@@H](O)CO[C@H](C)c2ccccc2-c2ccc(C(=O)O)c(O)c2)cc1F [Example 1-50, 2′-[1-[(2R)-3-[[1-(3-fluoro-4-methylphenyl)-2-methylpropan-2-yl]amino]-2-hydroxypropoxy]ethyl]-3-hydroxybiphenyl-4-carboxylic acid] | 2

The remaining lines, values ahead:

Row | IC50 [nM] | SMILES
15 | 28 | Cc1cc(-c2ccccc2[C@@H](C)OC[C@H](O)CNC(C)(C)Cc2cccc(Cl)c2F)ccc1C(=O)O [Example 1-91, 2′-[1-[(2R)-3-[[1-(3-chloro-2-fluorophenyl)-2-methylpropan-2-yl]amino]-2-hydroxypropoxy]ethyl]-3-methylbiphenyl-4-carboxylic acid]
16 | 148 | CC(OC[C@H](O)CNC(C)(C)Cc1ccc2ccccc2c1)c1ccccc1[S+]([O-])c1ccc(C(=O)O)cc1 (stereo partly drawn) [Example 2-17, 4-[2-[1-[(2R)-3-[[1-(naphthalen-2-yl)-2-methylpropan-2-yl]amino]-2-hydroxypropoxy]ethyl]phenylsulfinyl]benzoic acid]
17 | 29 | CC(OC[C@H](O)CNC(C)(C)Cc1ccc2ccccc2c1)c1ccccc1NCc1ccc(C(=O)O)cc1 (stereo partly drawn) [Example 2-19, 4-[[2-[1-[(2R)-3-[[1-(naphthalen-2-yl)-2-methylpropan-2-yl]amino]-2-hydroxypropoxy]ethyl]phenylamino]methyl]benzoic acid]
18 | 21 | Cc1ccc(CC(C)(C)NC[C@@H](O)COC(C)c2ccccc2C=Cc2ccc(C(=O)O)cc2)cc1F (stereo partly drawn) [Example 2-11, 4-[2-[2-[1-[(2R)-3-[[1-(3-fluoro-4-methylphenyl)-2-methylpropan-2-yl]amino]-2-hydroxypropoxy]ethyl]phenyl]vinyl]benzoic acid]
19 | 54 | Cc1ccc(CC(C)(C)NC[C@@H](O)COC(C)c2ccccc2Oc2cccc(C(=O)O)c2)cc1F (stereo partly drawn) [Example 2-8, 3-[2-[1-[(2R)-3-[[1-(3-fluoro-4-methylphenyl)-2-methylpropan-2-yl]amino]-2-hydroxypropoxy]ethyl]phenoxy]benzoic acid]
20 | 3 | Cc1ccc(CC(C)(C)NC[C@@H](O)CO[C@H](C)c2ccccc2-c2ccc(C(=O)O)c(OC(F)(F)F)c2)cc1F [Example 1-103, 2′-[1-[(2R)-3-[[1-(3-fluoro-4-methylphenyl)-2-methylpropan-2-yl]amino]-2-hydroxypropoxy]ethyl]-3-(trifluoromethoxy)biphenyl-4-carboxylic acid]
21 | 57 | Cc1ccc(CC(C)(C)NC[C@@H](O)CO[C@H](C)c2ccccc2OCc2ccc(C(=O)O)cc2)cc1F [Example 2-24, 4-[[2-[1-[(2R)-3-[[1-(3-fluoro-4-methylphenyl)-2-methylpropan-2-yl]amino]-2-hydroxypropoxy]ethyl]phenoxy]methyl]benzoic acid]
